Converted amounts (≈) assume the structure as drawn. “Also recorded” adds a separate entry of the source.
What was measured:
Format in all cases: cell-based
[1] = tested on: HL-60 human promyelocytic leukemia cells; experiment: Cell proliferation assay (cell counts), HL-60; settings: Table 5, 72 hours
Protocol: (§1) Tolytoxin and the other new scytophycin compounds are potent anticancer and antifungal agents. The cytotoxicity of tolytoxin and other new scytophycin compounds was determined using a cell proliferation assay, which tested the effect of the compounds on increases in cell numbers.
(§2) Cell lines were grown in plastic dishes (Falcon) in Eagle's basal medium supplemented with 5% newborn calf serum (KB), Fisher's medium supplemented with 10% horse serum (L1210), Dulbecco's modified Eagle's medium supplemented with 5% heat-inactivated fetal calf serum (LoVo), minimal essential medium supplemented with 2% heat-inactivated chicken serum (HEp-2), RPMI-1640 supplemented with 10% heat-inactivated fetal calf serum (T-47D, COLO-201) or 20% heat-inactivated fetal calf serum (HL-60, KATO-III), or McCoy's 5A supplemented with 10% heat-inactivated fetal calf serum (HBL-100). All cell culture media were supplemented with 50 μg/ml gentamycin sulfate. The cultures were incubated at 37° C. in a humidified atmosphere containing 5% carbon dioxide.
(§3) Cultures were exposed to graded concentrations of tolytoxin and reincubated for 72 hours in the presence of tolytoxin. […] Cell numbers were determined by hemacytometer counts. The IC50 for each cell line was determined by plotting the logarithm of the tolytoxin concentration versus growth (cell number as a percentage of the control) of the treated cells.

[2] = tested on: KATO-III human gastric carcinoma cells; experiment: Cell proliferation assay (cell counts), KATO-III; settings: Table 5, 72 hours
Protocol: as §1, §2, §3

[3] = tested on: Alternaria alternata 1715; experiment: Antifungal agar dilution; settings: Alternaria alternata, 1715, 48 h
Protocol: (§4) The new scytophycins are also useful as antifungal agents. Antimicrobial activity was determined by the agar dilution method. Tolytoxin was dissolved in 95% ethanol for addition to cooled, molten agar. Nystatin was solubilized in DMSO and diluted in distilled water. Appropriate solvent controls were also prepared. Fungal cultures were grown on Saboraud dextrose agar. Assay plates were incubated for 48 hours post-inoculation. Yeasts and filamentous fungi were incubated at 25° C.

Aspergillus oryzae = experiment: Antifungal agar dilution; settings: 48 h
Protocol: as §4

Bipolaris incurvata 2118 = experiment: Antifungal agar dilution; settings: Bipolaris incurvata, 2118, 48 h
Protocol: as §4

[4] = tested on: Calonectria critalarae 1809; experiment: Antifungal agar dilution; settings: 48 h
Protocol: as §4

[5] = tested on: Colletotrichum coccodes 1809; experiment: Antifungal agar dilution; settings: Colletotrichum coccodes, 1809, 48 h
Protocol: as §4

Penicillium notatum = experiment: Antifungal agar dilution; settings: Penicillium chrysogenum, 48 h
Protocol: as §4

[6] = tested on: Phyllosticta capitalensis 689-5; experiment: Antifungal agar dilution; settings: Phyllosticta capitalensis, 6895, 48 h
Protocol: as §4

Rhizoctonia solani 1165 = experiment: Antifungal agar dilution; settings: Rhizoctonia solani, 1165, 48 h
Protocol: as §4

[7] = tested on: Trichophyton mentagrophytes A23; experiment: Antifungal agar dilution; settings: Trichophyton mentagrophytes, A23, 48 h
Protocol: as §4

[8] = tested on: Human epidermoid carcinoma (KB) cells; experiment: Cell shape and nuclear protrusion by microscopy
Protocol: In the following procedure new scytophycins were employed to cause nuclear protrusion in mammalian cells. Human epidermoid carcinoma (KB) cells were plated on plastic tissue-culture dishes in Dulbecco's modified Eagle's medium at 1×10^5 cells per 60 mm dish. The cell cultures were incubated overnight at 37° C. in a humidified atmosphere of 95% air and 5% carbon dioxide to allow the cells to settle and become attached. Following the incubation, tolytoxin or the appropriate vehicle control was added in a volume of not more than 35 μL per 5 mL of culture medium. After an additional incubation period ranging from 1 to 4 hours, the culture medium was removed and the cell layer washed twice with phosphate-buffered saline (PBS), pH 7.2. The washed cell layer was stained for 15 minutes with 0.01% acridine orange in PBS. Following staining, the cell suspension was washed for 15 minutes with two changes of PBS to remove unbound stain and photographed on a Zeiss IM-35 photomicroscope equipped with brightfield and epifluorescence optics.

SMILES: COC1CC2C=CCC(CC(OC)C3(CO3)C(OC)CC(OC)C(C)C(C(C)C(O)C(C)CCC(=O)C(C)C(OC)C(C)/C=C/N(C)C=O)OC(=O)/C=C/C(C)=C/C1O)O2 (stereo not shown) [Tolytoxin, 6-hydroxy-7-O-methylscytophycin B]
- IC50 [1]: 4.8 nM
- IC50 [2]: 0.78 nM
- MIC [3]: 4 nM (≈ 3.4 ng/mL)
- MIC (Aspergillus oryzae): 0.5 nM (≈ 0.425 ng/mL)
- MIC (Bipolaris incurvata 2118): 2 nM (≈ 1.7 ng/mL)
- MIC [4]: 2 nM (≈ 1.7 ng/mL)
- MIC [5]: 4 nM (≈ 3.4 ng/mL)
- MIC (Penicillium notatum): 0.25 nM (≈ 0.213 ng/mL)
- MIC [6]: 0.5 nM (≈ 0.425 ng/mL)
- MIC (Rhizoctonia solani 1165): 0.25 nM (≈ 0.213 ng/mL)
- MIC [7]: 8 nM (≈ 6.8 ng/mL)
- cell shape and surface appearance ([8]; 4 nM, 1 hour): fibroblastoid cellular shape and the appearance of blebs or zeioses on the cell surfaces; also recorded: the cells have lost their normal extended fibroblastoid shape, and the appearance of blebs or zeioses on the cell surface is apparent
- migration of cell nucleus ([8]; 8nM, 4 hours): the cell nuclei have migrated out of their respective cell bodies; also recorded: The cell nucleus has migrated outside the body of the cell and now occupies one of the zeiotic processes

From patent publication US5439933A (priority 1993, dated 1995)
